Source: PMC3235747, “Bioassay-Guided Isolation of Cytotoxic Cycloartane Triterpenoid Glycosides from the Traditionally Used Medicinal Plant Leea indica” (Evidence-based Complementary and Alternative Medicine : eCAM, 2011)
In brackets after ≈: the same amount, converted by molar mass. Several values for one entry are separate records, joined by “and”; a condition that tells them apart may be missing. Equal values may be shown once. Read-outs that look alike come from different tables or passages of the source.

Tests used:
Assay type in all cases: cell-based, human
[1] = MTT assay, 72 h exposure, Ca Ski cells; conditions: human
Procedure: (§1) The human cervical epidermoid carcinoma cell line (Ca Ski, ATCC number CRL-1550) and human fibroblast cell line (MRC 5, ATCC number CCL-171) were purchased from the American Type Culture Collection (ATCC, USA). Ca Ski cells were maintained in RPMI 1640 Medium (Sigma) and MRC 5 cells in EMEM (Eagle Minimum Essential Medium) (Sigma). The media were supplemented with 10% (v/v) heat-inactivated fetal bovine serum (PAA Lab, Austria), 100 μg/mL streptomycin and 100 unit/mL penicillin (PAA Lab, Austria), and 50 μg/mL amphotericin B (PAA Lab, Austria). The media were filter-sterilized using a 0.22 μm filter membrane (Minisart, Sartorius stedim). The cells were cultured in 5% CO2 incubator at 37°C in a humidified atmosphere. MTT assay was modified from Mossmann and used to evaluate the cytotoxic effects of each fraction and compounds. MTT assay is widely used to assess the viability and/or the metabolic state of the cells based on mitochondrial respiratory activity. A total of 5 × 10^3 cells were seeded into each well of 96-well plates and allowed to adhere for 24 h. After 24 h, the cells were treated with the fractions or compounds in the final concentrations ranging from 3.125 to 100 μg/mL. Each concentration was performed in triplicate well. Control cells were treated with vehicle DMSO to get the final concentration of 0.5% v/v. The cells were then incubated for 72 h. After 72 h exposure period, MTT (5 mg/mL) was added and further incubated for 4 h at 37°C. The medium was then aspirated and the crystals formed were dissolved in 150 μL DMSO. The absorbance was measured at 570 nm against the reference wavelength of 650 nm. The percentage of viability was calculated based on the formula: Viability (%) = (absorbance of treated cells/absorbance of control cells) × 100%. The IC50 (concentration that reduces cell viability to 50%) was derived from the dose-response curves.

[2] = tested on: Ca Ski cervical cancer cells; test: MTT assay, 72 h exposure, Ca Ski cells; conditions: for decrease in cell viability: Ca Ski cells, 3.125–100 μg/mL
Procedure: as §1

MRC 5 normal cells = test: MTT assay, 72 h exposure, MRC 5 normal cells; conditions: for fold higher IC50 against MRC 5 compared to CPT: MRC 5, relative to camptothecin; for IC50: Homo sapiens, MRC5, 72 h
Procedure: as §1, with “curves. MRC 5 cell line was used as a normal cell model for the calculation of selectivity index (SI). SI value was calculated by dividing the IC50 value of the MRC 5 cell line with the IC50 value of Ca Ski cell line.” for “curves.”

Ca Ski cells [3] = test: MTT recovery assay (72 h exposure then 72 h recovery)
Procedure: In order to determine whether the cytotoxicity is cytostatic or cytocidal, a recovery assay was conducted whereby after the 72 h incubation (exposure period), the medium containing the compound was removed, washed with medium, and replaced with medium alone for a recovery period of 72 h followed by addition of MTT and measurement as described earlier. A sample is showing cytostatic effect when the IC50 in the recovery assay was higher than that of the exposure assay. Whereas for cytocidal effect, the IC50 obtained in the recovery assay is similar to that shown by the exposure assay.

Ca Ski cells [4] = test: Trypan blue exclusion (TBE) assay, viable cell count; conditions: 60 μM
Procedure: Ca Ski cells were cultured at a density of 1 × 10^6 cells/mL in 60 mm culture dishes. After 24 h of attachment, the cells were treated without or with 60 μM of MAA for different time periods. After 6–72 h, the cells were harvested, washed with medium, and the cell pellets were resuspended in medium. After incubation in 0.4% trypan blue for 5 min, viable cells were counted using a hemocytometer. At the indicated time point straight before the cells were harvested, the cells were visualized under an inverted phase-contrast microscope (Motic) to observe the cell morphological changes upon treatment, and photographs were taken.

[5] = tested on: proliferating cell nuclear antigen (PCNA) expression in Ca Ski cells; test: Q-PCR analysis of PCNA expression; conditions: 20–100 μM for 24 h; 60 μM for 0–24 h; relative to untreated control, normalized with GAPDH
Procedure: A total of 1 × 10^6 Ca Ski cells were seeded into 60 mm culture dishes and incubated for 24 h for attachment. Cells were then treated without or with 20-100 μM of MAA for 24 h. For time-course study, cells were treated with 60 μM MAA for 0, 3, 6, 12, and 24 h. After specific treatment period, cells were harvested and total RNA was isolated using the RNAqueous-4PCR kit (Applied Biosystem) according to the manufacturer's directions. The RNA concentration was determined using spectrophotometry. The gene expression of PCNA was assessed by one-step SYBR Green relative real-time PCR (Rotor-Gene System, Qiagen) and normalized to GAPDH reference control amplifications. The primer sequences for PCNA and GAPDH were forward [NT], reverse [NT] and forward [NT], reverse [NT], respectively. The PCR amplification reactions were carried out in a total volume of 25 μL for 30 cycles of 45 seconds at 95°C, 45 seconds at 56°C, and 120 seconds at 72°C. The mean fluorescence threshold value (CT) of each sample was obtained according to the manufacturer's guidelines and used to determine ΔCT values where by ΔCT = CT target gene (PCNA) - CT reference gene (GAPDH).

Ca Ski cells [6] = test: Cell cycle analysis by PI staining and flow cytometry; conditions: 60 μM
Procedure: The cell cycle distribution was assessed using propidium iodide (PI) staining. Ca Ski cells were seeded in 60 mm culture dishes (1 × 10^6 cells) and left 24 h for attachment. The cells were then treated without or with 60 μM MAA for 12–72 h. After the designated treatment period, both adherent and floating cells were harvested and washed twice with PBS. Cell pellets were resuspended in 100 μL of PBS and fixed with absolute ethanol and stored at −20°C for 24 h. Fixed cells were washed twice with PBS, and the cell pellets were incubated in a buffer containing 50 μg/mL PI, 0.1% sodium citrate, 0.1% Triton-X-100, and 100 μg/mL RNase A for 45 min in the dark at room temperature. The percentage of cells in the sub-G1, G1, S, and G2/M-phases of the cell cycle was then analyzed using a FACS Calibur flow cytometer (Beckton Dickinson). Data were acquired and analyzed using Cell Quest software (Becton Dickinson).

[7] = Homo sapiens, Ca-Ski, 72 h, MTT, 72 h exposure

| Compound | selectivity ratio at 72 h [1] | decrease in cell viability ([2]; 72 h) | IC50 ([2]; MTT, 72 h exposure) | IC50 for Ca Ski cells ([2]; MTT, 72 h exposure) | fold higher IC50 against MRC 5 compared to CPT (MRC 5 normal cells) | IC50 on MRC 5 (MRC 5 normal cells; MTT, 72 h exposure) | selectivity ratio at 72 h ([1]; Ca Ski cervical carcinoma cells vs MRC 5 fibroblast cells, Ca Ski vs MRC 5, read-out: selectivity index (IC50 MRC 5 / IC50 Ca Ski), times more cytotoxic to Ca Ski cells compared to MRC5) | IC50 [2, 7] | IC50 (MRC 5 normal cells; MTT, 72 h exposure) | IC50 in the recovery assay compared with the exposure assay (Ca Ski cells [3]) | effect on cell proliferation (viable cell count) (Ca Ski cells [4]; 6 h) | effect on cell proliferation (viable cell count) (Ca Ski cells [4]; 12 h and 24 h) | expression of PCNA [5] | proportion of S-phase and G2/M-phase cells versus untreated cells (Ca Ski cells [6]; 12 and 24 h) | increase of hypodiploid (sub-G1) cells (Ca Ski cells [6]; after 72 h) |
| --- | --- | --- | --- | --- | --- | --- | --- | --- | --- | --- | --- | --- | --- | --- | --- |
| CC(C)=CCCC(C)C1CCC2(C)C3CCC4C(C)(C(=O)O)C(OC5OCC(O)C(O)C5O)CC(O)C45CC35CCC12C [MAX, 1α, 3β-dihydroxy-cycloart-24-ene-28-oic acid 3-O-[β-D-xylopyranoside]] | ~4 | 6–90% | 33.3 µM | 20.13 ± 0.21 µg/mL | ~17 fold | 79.25 ± 0.66 µg/mL (≈ 131 µM) | – | – | – | – | – | – | – | – | – |
| CC(C)=CCCC(C)C1CCC2(C)C3CCC4C(C)(C(=O)O)C(OC5OCC(O)C(O)C5O)CC(O)C45CC35CCC12C [MAA, 1α, 3β-dihydroxy-cycloart-24-ene-28-oic acid 3-O-[α-L-arabinopyranoside]] | – | 20–95% | – | – | approximately 20 fold | – | ~8 | 19.2 µM and 11.6 µg/mL | 94.32 ± 0.75 µg/mL (≈ 156 µM) | almost the same to the exposure assay | modestly inhibited the cell proliferation | prominent antiproliferative effect | significantly decreased | significantly higher | about 20 fold |
| CC[C@@]1(O)C(=O)OCc2c1cc1n(c2=O)Cc2cc3ccccc3nc2-1 [camptothecin, reference compound] | – | – | – | – | – | – | – | 2.51 ± 0.33 µg/mL | 4.74 ± 0.33 µg/mL (≈ 13.6 µM) | – | – | – | – | – | – |
